# Experimental data published in patent US9346832B2, “Gold complexes for use in the treatment of cancer” (University of Kwazulu-Natal, priority 2010, dated 2016).
# “Also recorded” adds a separate entry of the source.
# Key:
# [1] = tested on: 60 human cancer cell lines; assay: NCI-60 one-dose screen; format: cell-based; settings: single dose 10 μM
# Protocol: The gold(III) complexes of this invention were screened by the National Cancer Institute (NCI, USA) against their panel of 60 different human cancer cell lines. These screens initially entail a one-dose test for the compound at a high concentration (10 μM; e.g. FIGS. 5, 6 and 7). Compounds with a good cytotoxicity profile in the one-dose screen are then subjected to a five-dose screen for the full panel of sixty human cancer cell lines (the so-called 5-dose NCI-60 screen). In the full five-dose screen, the compound concentration is varied in five doses from 10^−8 M to 10^−4 M in order to establish a dose-response function of percentage cell growth versus the concentration of the test agent. […] Similar data will shortly be available for compounds 1.1Y^1b and 1.5Y^1a as these derivatives are in 5-dose screens currently at the NCI.
# The results of one-dose NCI-60 screens are noteworthy and merit some discussion as they quickly indicate activity profiles, cell-line specificity, and general cytotoxicity for the test agents across multiple human cancer cell lines. FIGS. 5, 6, and 7 set out the one-dose screening results for MA_AuPr (FIG. 5), KA_AumacroPr (FIG. 6), and KA_AuMelmPr (FIG. 7) obtained by the NCI. These three compounds are the parent derivatives that are representative of the three new types of gold(III) Schiff base chelate relevant to this invention. All other compounds synthesized as part of this invention have been similarly analyzed.
# topoisomerase I = target: T1, topoisomerase I (Homo sapiens, UniProt P11387); assay: Topoisomerase I poison/inhibitor EB gel assay; format: biochemical; settings: compared with CPT (camptothecin)
# T1 sequence (P11387 1-765): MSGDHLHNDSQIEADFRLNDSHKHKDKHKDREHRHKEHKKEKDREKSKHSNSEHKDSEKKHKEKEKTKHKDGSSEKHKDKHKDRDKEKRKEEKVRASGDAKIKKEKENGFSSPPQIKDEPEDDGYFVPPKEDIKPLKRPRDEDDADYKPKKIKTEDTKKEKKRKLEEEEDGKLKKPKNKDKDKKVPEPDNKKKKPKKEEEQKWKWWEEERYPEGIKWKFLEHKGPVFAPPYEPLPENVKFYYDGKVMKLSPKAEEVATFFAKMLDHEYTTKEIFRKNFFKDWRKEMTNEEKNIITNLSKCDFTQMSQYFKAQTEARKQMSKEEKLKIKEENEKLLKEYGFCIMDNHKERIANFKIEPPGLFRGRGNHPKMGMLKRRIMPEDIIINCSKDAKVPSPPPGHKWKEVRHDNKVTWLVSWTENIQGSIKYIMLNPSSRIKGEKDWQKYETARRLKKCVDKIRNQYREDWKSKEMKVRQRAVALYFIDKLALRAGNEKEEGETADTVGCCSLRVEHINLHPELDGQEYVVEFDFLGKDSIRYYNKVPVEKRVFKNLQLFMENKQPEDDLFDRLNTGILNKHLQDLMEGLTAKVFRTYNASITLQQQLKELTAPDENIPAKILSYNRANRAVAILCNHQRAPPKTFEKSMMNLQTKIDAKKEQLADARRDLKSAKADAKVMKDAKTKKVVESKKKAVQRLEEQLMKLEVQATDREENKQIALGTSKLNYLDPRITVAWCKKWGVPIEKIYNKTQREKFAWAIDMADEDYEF
# Protocol: The compound MA_AuPr clearly targets topoisomerase II if the statistical analysis of the NCI data for a range of drugs shown in FIG. 13 is correct. MA_AuPr was therefore assayed for its action against topoisomerase II in vitro using TopoGEN's standard protocol over a wide range of test agent concentrations (0.005 to 500 μM) in order to obtain direct experimental proof for the apparent cellular target of the compound to ensure that a fundamental understanding of the mechanism of action of this new class of Au(III) compounds exists. These experiments were performed by the company TopoGEN and at the University of Central Florida. The DNA cleavage experiments were performed in vitro using purified topoisomerase I and II enzymes and supercoiled plasmid DNA as the substrate. The controls that were used in the experiment were linear marker DNA as well as reactions without the gold(III) complex and high concentrations of VP16. The compound VP16 (etoposide) is a commercially available DNA intercalator chemotherapeutic agent, widely used in the treatment of lung and testicular cancers as well as lymphomas. […]
# calf thymus DNA = assay: Calf-thymus DNA titration (absorption hypochroism); format: binding; settings: MA series: pH 7.0 phosphate buffer at 37° C.
# Protocol: FIG. 20 is a graph of the titration of MA_AuPr (1.1a) with calf-thymus DNA in aqueous pH 7 phosphate buffer at 37° C.
# The hypochroism of the absorption band of the complex at 383 nm was monitored as a function of added ctDNA. […] Ka is the equilibrium binding constant in M^−1, Ct is the total Au(III) complex concentration, and s is the binding site size.
# human cancer cell lines = assay: Cytotoxicity summary (NCI-60 or independent cytotoxicity screen), Scheme 19; format: cell-based
# [2] = format: in vivo, mouse
# Protocol: FIG. 22 is a plot showing the mouse survival data as a function of metallodrug dose for MA_AuPr.
# A single dose of the compound was administered by injection over the first week followed by two injections per week per mouse for a total period of 50 days.
smiles,measurement,setting,value
"C1=NCCCN=Cc2ccc[n]2[Au+][n]2cccc21.[Cl-] [MA_AuPr, 2,2′-{propane-1,3-diylbis[nitrilo(E)methylylidene]}bis(pyrrol-1-ido)gold(III) chloride]",one-dose screening result,[1],"leukemia, breast, and colon cancer cell lines are inherently more susceptible"
same,activity against topoisomerase I,topoisomerase I,inactivity; also recorded: not a topoisomerase I poison
same,Ka (calf thymus DNA),calf thymus DNA,2.05(2) × 10^5 M^−1
same,Cytotoxicity,human cancer cell lines,active
same,health and weight of mice,"[2]; 1 to 30 μmol/kg, 50 days",remained healthy and showed no abnormal weight changes
same,acute toxicity,"[2]; mice, injection, 1 to 30 μmol/kg doses",> 30 μmol/kg/week
same,chronic toxicity,"[2]; mice, two injections per week, 50 days",> 60 μmol/kg/week
